Assay results: US20110293672A1, “PANCREATIC TUMOUR TREATMENT” (BIOCOMPATIBLES UK LIMITED, priority 2008, published 2011)
In brackets after ≈: the same amount, converted by molar mass. Like-named read-outs stand apart in the source and are kept apart here.

Legend:
advanced pancreas cancer = conditions: single agent, patients with advanced pancreas cancer; cited from earlier work
[1] = system: PSN1 (Human Pancreatic Carcinoma) Cell Line; experiment: MTS cytotoxicity of irinotecan and topotecan solutions on PSN1 cells; type: cell-based; conditions: for IC50: read-out: Estimated IC50 conc.
Method: 20,000 PSN1 cells were seeded in 96 well plates and left to adhere to the well surface overnight. The drug solutions underwent serial dilutions from 1000 μg/ml to 1×10^−8 μg/ml in cell culture media. […] After 24, 48 and 72 hrs, the cells were washed (×3) with PBS and 100 μl media was added. The MTS assay was conducted by adding 20 μl MTS solution to each well and incubating (37° C., 5% CO2) for 2 hrs. The absorbance of each well at 490 nm was determined using a Biotek plate reader.

Q: For O=c1[nH]cc(F)c(=O)[nH]1 [5-fluorouracil], which Median survival (advanced pancreas cancer) is on record?
A: The Median survival was 4.4 months.

Q: For CCc1c2c(nc3ccc(OC(=O)N4CCC(N5CCCCC5)CC4)cc13)-c1cc3c(c(=O)n1C2)COC(=O)[C@]3(O)CC [Irinotecan, irinotecan], which “Concentration at which a reduction in cell viability began” value (shortened to “Concentration at which a reduction”) ([1]; 24 hrs exposure) is on record?
A: The value was 100 µg/mL.

Q: What about the “Concentration at which a reduction” value ([1]; 48 hours) of the same compound?
A: The value was 10 µg/mL.

Q: And the “Concentration at which an effect on cell viability began” value ([1]; 72 hours)?
A: The value was “around 50 μg/ml”.

Q: And the “Effect on cell viability at lower concentration” value ([1]; <1 μg/ml, even after 72 hours)?
A: The value was “no detrimental effect in cell viability”.

Q: What about the IC50 ([1]; Homo sapiens, 24 hrs exposure) of the same compound?
A: The IC50 was 100 µg/mL (≈ 170 µM).

Q: What about the IC50 ([1]; Homo sapiens, 48 hrs exposure) of the same compound?
A: The IC50 was 35 µg/mL (≈ 59.7 µM).

Q: What about the IC50 ([1]; Homo sapiens, 72 hrs exposure) of the same compound?
A: Its IC50 is 30 µg/mL (≈ 51.1 µM).

Q: Which “Relative potency in reducing PSN1 cell viability” value [1] does the source give for CC[C@@]1(O)C(=O)OCc2c1cc1n(c2=O)Cc2cc3c(CN(C)C)c(O)ccc3nc2-1 [Topotecan, topotecan] here?
A: The value was “more potent than irinotecan”.

Q: What about the “Concentration at which a reduction” value ([1]; 24 hrs exposure) of the same compound?
A: The value was 1 µg/mL.

Q: And the “Concentration at which a reduction” value ([1]; 48 hours)?
A: Its value is 0.1 µg/mL.

Q: And the “Concentration at which an effect on cell viability began” value ([1]; 72 hours)?
A: The value was 1e-07 µg/mL.

Q: And the “Concentration needed for a reduction in cell viability below 80%” value ([1]; 72 hours)?
A: Its value is 0.01 µg/mL.

Q: And the IC50 ([1]; Homo sapiens, 24 hrs exposure)?
A: Its IC50 is 600 µg/mL (≈ 1420 µM).

Q: What about the viability at 0.1 µg/mL ([1]; Homo sapiens, 48 hours, 0.1 μg/ml) of the same compound?
A: The viability at 0.1 µg/mL was roughly 80%.

Q: What about the IC50 ([1]; Homo sapiens, 48 hrs exposure) of the same compound?
A: Its IC50 is 0.6 µg/mL (≈ 1.42 µM).

Q: And the IC50 ([1]; Homo sapiens, 72 hrs exposure)?
A: The IC50 was 0.1 µg/mL (≈ 0.237 µM).

Q: With Nc1ccn([C@@H]2O[C@H](CO)[C@@H](O)C2(F)F)c(=O)n1 [gemcitabine] as the compound, how does the Median survival (advanced pancreas cancer) read?
A: Its Median survival is 5.7 months.
